The target of test [1] is T1, CHRM2 (Homo sapiens, UniProt P08172).
T1 construct: the entire human GPCR; mouse immunoglobulin kappa signal peptide (N); expressed in transfected cells
T1 sequence (P08172 2-466): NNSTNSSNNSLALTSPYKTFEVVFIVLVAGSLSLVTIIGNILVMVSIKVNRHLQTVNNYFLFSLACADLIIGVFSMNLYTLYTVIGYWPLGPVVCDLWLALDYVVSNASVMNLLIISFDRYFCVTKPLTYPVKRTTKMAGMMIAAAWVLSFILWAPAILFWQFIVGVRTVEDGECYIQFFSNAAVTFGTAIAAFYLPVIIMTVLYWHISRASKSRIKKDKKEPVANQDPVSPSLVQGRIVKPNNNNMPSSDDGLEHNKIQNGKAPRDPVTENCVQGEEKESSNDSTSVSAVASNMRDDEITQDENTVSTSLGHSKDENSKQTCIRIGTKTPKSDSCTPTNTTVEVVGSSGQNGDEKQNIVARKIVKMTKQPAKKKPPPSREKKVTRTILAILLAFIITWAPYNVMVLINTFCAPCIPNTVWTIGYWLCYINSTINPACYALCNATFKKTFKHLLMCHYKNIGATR
In words: Exocytosis time optimisation, granzyme B FRET readout (Example 12). Format: cell-based. Particulars: agonist 10 uM. An excerpt: An experiment was designed to optimize assay conditions such as: exocytosis time, number of steps needed for assay and uses of cells in suspension. Cells developed in example #9 expressing both a GPCR and human granzyme B were used in this example for optimization of exocytosis time. GPCRs included were CHRM2 (an alpha-i coupled GPCR) and bradykinin type B1 receptor (an alpha-q coupled GPCR). Carbachol and kallinin from Sigma-Aldrich (USA) were used as ligands for CHRM2 and bradykinin type B1 receptor, respectively and used at 10 uM final concentration in HBSS buffer. Cells were seeded the night before experiment at 20.000 cells per well of a 96-well microplate in 100 uL of complete cell culture medium. Next day cells were washed with HBSS buffer and incubated with the ligand (agonist) at 10 uM of each GPCR in 30 uL of HBSS buffer at 37 Celsius degrees for 5, 15, 30 or 60 minutes and after centrifugation at 400 g for 5 minutes supernatants were analysed for human granzyme B activity using FAM-[…]-TAMRA at 1 uM final concentration as the human granzyme B substrate. Released FAM was measured by excitation at 485 nm and emission at 535 nm in a BMG Labtech microplate fluorimeter in 96 well microplates. Microplates were incubated at 37 Celsius degrees on the reader and were kinetically read at 0, 15, 30, 45 and 60 minutes. Control wells with substrate only in HBSS buffer were included to subtract autofluorescence of substrates to both cells treated with ligands and to cells treated with HBSS buffer only. […] The signal to background is lower at longer exocytosis times due to the higher increase in basal release than the increase in specific signal after the first 5 to 15 minutes. Thus, any exocytosis time from probably less than 5 minutes to at least 60 minutes may be used for the methods of the present invention but longer exocytosis times produce a sensor with a lower signal to background, exocytosis is nearly complete at 5 minutes and signal to background is good for a robust sensor.

The target of test [2] is T1, CHRM2. As to the kind of experiment: Number of steps needed, 384 well mix and read assay (Example 13). Particulars: carbachol 10 uM, 5.000 cells, only 15 uL of medium aspirated, 30 minutes. The class given is cell-based. The source says:
This experiment was designed to test how many steps are needed for an assay with the cell based sensor, in particular if a washing step is needed before assay. As the RBL-2H3 is an adherent cell line at least one step of aspiration of cell culture medium is needed. If all cell culture medium is aspirated then cells should become dry and eventually die in particular if there is a time interval between aspiration and addition of compounds to test for exocytosis. For this reason an additional treatment was included were not all cell culture medium is aspirated. But if not all the cell culture medium is aspirated then some of the reporter secreted by cells after overnight culture contributes to basal exocytosis. CHRM2 and granzyme B expressing cells from example #12 were used in this experiment but cells were seeded 16 hours before experiment at 5.000 cells per well of a 384 well plate with black walls in 20 uL of culture medium. Before experiment three treatments were made: (1) discarding all the 20 uL of medium without washing; (2) discarding only 15 uL of cell culture medium and (3) discarding only 15 uL of cell culture medium and washing of the cells using 75 uL of Hanks Balanced Salt Solution (HBSS) containing 0.1% BSA and aspiration of 75 uL of washing buffer. […] Plates were incubated at 37° C. in the fluorescence reader and read at 0, 15, 30, 45 and 60 minutes. […]

Take `C[N+](C)(C)CCOC(N)=O` [Carbachol, carbachol]: the “exocytosis, % of maximal” value at CHRM2 [1] (5 minutes, 20.000 cells) is on record as greater than 90%. For the same compound, the figures for the “signal to background (S/B)” value at CHRM2 [1] (medium taken at 5 to 15 minutes), at CHRM2 [1] (medium taken at 30 minutes) and on CHRM2 [1] (medium taken at 60 minutes) were 20-22, 15-17 and 8-10, respectively. Moreover, on CHRM2 [2], the signal to background is 8-10.

For the origin of these results see US9347942B2, “Ultrasensitive cell based sensors and uses thereof” (CANVAX BIOTECH SL, priority 2010, dated 2016).
